# Results: patent US20080318925A1 (ASTRAZENECA AB, priority 2007, published 2008)
# Target: T1, GABAA2 receptors (α2, β3, γ3 receptor subunits transfected into Sf9 cells) (Homo sapiens, UniProt P47869+Q99928)
# T1 construct: host or cells: Sf9 cells (membranes)
# T1 sequence (P47869 29-451): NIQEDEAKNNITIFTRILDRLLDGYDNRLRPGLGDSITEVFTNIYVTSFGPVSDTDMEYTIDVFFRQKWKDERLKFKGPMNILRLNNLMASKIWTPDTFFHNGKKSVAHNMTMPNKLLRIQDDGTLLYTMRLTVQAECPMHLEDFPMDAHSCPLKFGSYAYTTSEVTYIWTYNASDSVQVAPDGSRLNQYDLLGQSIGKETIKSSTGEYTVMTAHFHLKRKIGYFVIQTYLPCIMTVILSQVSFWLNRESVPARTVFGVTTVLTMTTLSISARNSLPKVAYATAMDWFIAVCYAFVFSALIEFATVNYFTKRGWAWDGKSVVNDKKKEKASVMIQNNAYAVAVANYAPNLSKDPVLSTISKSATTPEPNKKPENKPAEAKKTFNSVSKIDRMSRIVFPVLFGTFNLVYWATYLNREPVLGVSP
# T1 sequence (P28472 26-473 partner): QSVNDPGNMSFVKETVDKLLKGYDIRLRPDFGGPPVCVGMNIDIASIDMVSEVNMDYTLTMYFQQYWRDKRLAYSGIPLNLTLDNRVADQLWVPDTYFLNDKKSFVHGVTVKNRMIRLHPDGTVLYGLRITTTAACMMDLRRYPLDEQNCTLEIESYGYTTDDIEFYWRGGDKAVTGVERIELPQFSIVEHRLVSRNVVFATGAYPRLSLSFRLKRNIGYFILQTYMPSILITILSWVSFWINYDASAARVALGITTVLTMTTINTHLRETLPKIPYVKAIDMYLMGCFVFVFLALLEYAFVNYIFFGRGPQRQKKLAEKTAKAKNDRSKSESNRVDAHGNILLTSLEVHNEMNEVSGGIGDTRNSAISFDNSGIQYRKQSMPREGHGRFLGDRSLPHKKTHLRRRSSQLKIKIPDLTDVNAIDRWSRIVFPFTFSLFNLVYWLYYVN
# T1 sequence (Q99928 18-467): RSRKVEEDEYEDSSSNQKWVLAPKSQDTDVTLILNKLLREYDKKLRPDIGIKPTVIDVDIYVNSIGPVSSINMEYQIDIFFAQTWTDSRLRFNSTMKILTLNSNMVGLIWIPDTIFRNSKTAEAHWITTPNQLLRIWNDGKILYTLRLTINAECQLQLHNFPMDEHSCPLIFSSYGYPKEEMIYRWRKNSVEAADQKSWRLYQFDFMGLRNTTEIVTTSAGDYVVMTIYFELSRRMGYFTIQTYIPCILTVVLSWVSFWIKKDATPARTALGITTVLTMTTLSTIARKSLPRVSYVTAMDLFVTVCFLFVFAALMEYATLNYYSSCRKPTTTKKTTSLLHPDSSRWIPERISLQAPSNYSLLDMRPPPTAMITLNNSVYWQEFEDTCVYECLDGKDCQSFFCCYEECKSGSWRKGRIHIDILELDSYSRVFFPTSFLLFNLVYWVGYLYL
# Assay: GABAA2 binding method ([3H]-flunitrazepam displacement)
# Conditions: [3H]-flunitrazepam ~2 nM, Sf9 membranes, 1 hr at 4° C.
# Experimental: In some embodiments, the binding test was directed to a subtype of GABAA receptors, such as GABAA1 receptors (i.e., those containing the α1 subunit), GABAA2 receptors (i.e., those containing the α2 subunit), GABAA3 receptors (i.e., those containing the α3 subunit) and GABAA5 receptors (i.e., those containing the α5 subunit).
# • Assay and Wash Buffer: 50 mM Tris-Citrate, 200 mM NaCl, pH 7.8 Compounds at 10 mM in DMSO: Put 75 μl in column 1 of compound plate.
# Flumazenil, 10 mM (for NSB)
# [^3H]-Flunitrazepam (Cat #NET567): Prepare 10× stock=20 nM, [F} in assay=˜2 nM
# 1. […] Add 5 ul of 30 uM flumazenil to wells 12 D-E for 50% control wells.
# 2. Spot 2 μl of compound dilutions into dry plate (Automation Program 3). Manually spot 2 μl 10 mM flumazenil into wells 12 F-H for nonspecific control.
# 3. Make 1:100 dilution in assay buffer (2 μl into 200 μl) and dispense 25 μl compound into assay plates (Automation Program 4).
# 4. Dispense 200 μl membranes into assay plate (Automation Program 5).
# 5. Add 25 μl [^3H]-Flunitrazepam (Automation Program 6). Incubate for 1 hr at 4° C.
# 6. Collect membranes on a cell harvester onto GF/B filter plates (pre-wet with dH2O and wash 5× 400 μl/well, with cold assay buffer. (First 3 washes are considered hot; last two are cold.)
# 7. Dry plates for 2-3 hours at RT.
# 8. Add 40 μl Microscint 40/well (Automation Program 7); seal plates. Count on a TopCount.
# Data is analyzed by calculating percent of control, IC50, and Ki in an XLfit template. The following formula is used in the templates: […]
row,Ki,Structure (SMILES)
1,0.327 nM,CCCNC(=O)c1nnc2c(-c3cc(Cl)ccc3OC)c(F)ccc2c1N
2,0.341 nM,CCCNC(=O)c1nnc2c(-c3c(F)cccc3OC)c(F)ccc2c1N
3,0.364 nM,CCCNC(=O)c1nnc2c(-c3ccccc3C(F)(F)F)cccc2c1N
4,0.552 nM,CCCNC(=O)c1nnc2c(-c3cc(OC)cc(OC)c3)c(F)ccc2c1N
5,0.558 nM,CCCNC(=O)c1nnc2c(-c3cccc(F)c3F)cccc2c1N
6,0.565 nM,CCCNC(=O)c1nnc2c(-c3ccc(F)cc3OC)c(F)ccc2c1N
7,0.6 nM,CCCNC(=O)c1nnc2c(-c3ccc(OC)c(OC)c3OC)c(F)ccc2c1N
8,0.613 nM,CCCNC(=O)c1nnc2c(-c3ccc(OC)cc3F)c(F)ccc2c1N
9,2.34 nM,CCCNC(=O)c1nnc2c(-c3cncc(C(=O)N4CCC4)c3)cccc2c1N
10,2.42 nM,CCCNC(=O)c1nnc2c(-c3ccc(OC)cc3C(F)(F)F)cccc2c1N
11,2.5 nM,CCCNC(=O)c1nnc2c(-c3ccc(OC)cc3OC)cccc2c1N
12,2.6 nM,CCCNC(=O)c1nnc2c(-c3cccnc3)cccc2c1N
13,2.69 nM,CCCNC(=O)c1nnc2c(-c3ccc(OC)cc3OC)c(C#N)ccc2c1N
14,2.73 nM,CCCNC(=O)c1nnc2c(-c3cnc(OC)nc3OC)c(Cl)ccc2c1N
15,2.88 nM,CCCNC(=O)c1nnc2c(-c3ccc(OC)c(F)c3)c(F)ccc2c1N
16,3.41 nM,CCCNC(=O)c1nnc2c(-c3cccc(OC)c3F)cccc2c1N
17,3.44 nM,CCCNC(=O)c1nnc2c(-c3cccc(C(=O)N4CCC4)c3)cccc2c1N
18,3.88 nM,CCCNC(=O)c1nnc2c(-c3ccc(OC)c(OC)c3)cccc2c1N
19,4.11 nM,CCCNC(=O)c1nnc2c(-c3ccc(C)nc3)cccc2c1N
20,4.17 nM,CCCNC(=O)c1nnc2c(-c3ccc(OC)cc3F)cccc2c1N
21,4.21 nM,CCCNC(=O)c1nnc2c(-c3cncc(OC)c3)cccc2c1N
22,4.34 nM,CCCNC(=O)c1nnc2c(-c3cccc(OC)c3)cccc2c1N
23,4.34 nM,CCCNC(=O)c1nnc2c(-c3ccc(F)cc3OC)cccc2c1N
24,4.36 nM,CCNC(=O)c1nnc2c(-c3cnccc3OC)cccc2c1N
25,5.56 nM,CCCNC(=O)c1nnc2c(-c3cc(F)ccc3C)cccc2c1N
26,5.71 nM,CCCNC(=O)c1nnc2c(-c3ccc(OC)cc3OC)c(Cl)ccc2c1N

row,Ki,Structure (SMILES)
1,5.78 nM,CCCNC(=O)c1nnc2c(-c3cc(F)cc(F)c3OC)c(F)ccc2c1N
2,5.82 nM,CCCNC(=O)c1nnc2c(-c3ccccc3)c(Cl)ccc2c1N
3,6.75 nM,CCCNC(=O)c1nnc2c(-c3ccc(OC)c(OC)c3OC)cccc2c1N
4,7.51 nM,CCCNC(=O)c1nnc2c(-c3nc(Br)ccc3OC)cccc2c1N
5,8.72 nM,CCCNC(=O)c1nnc2c(-c3ccc(Cl)cc3)c(F)ccc2c1N
6,9.58 nM,CCCNC(=O)c1nnc2c(-c3ccc(F)cc3)cccc2c1N
7,10.4 nM,CCCNC(=O)c1nnc2c(-c3cccc(S(C)(=O)=O)c3)cccc2c1N
8,10.5 nM,CCCNC(=O)c1nnc2c(-c3cc(F)ccc3OC)cccc2c1N
9,10.5 nM,CCNC(=O)c1nnc2c(-c3cc(C)ccc3OC)cccc2c1N
10,10.9 nM,CCCNC(=O)c1nnc2c(-c3cccc(F)c3OC)cccc2c1N
11,11.2 nM,CCCNC(=O)c1nnc2c(-c3cc(C)ccc3C)c(Cl)ccc2c1N
12,12.3 nM,CCCNC(=O)c1nnc2c(-c3cccc(Cl)c3)cccc2c1N
13,12.3 nM,CCCNC(=O)c1nnc2c(-c3cnc4ccccc4c3)cccc2c1N
14,13.3 nM,CCCCNC(=O)c1nnc2c(-c3cc(C)ccc3OC)cccc2c1N
15,13.9 nM,CCCNC(=O)c1nnc2c(-c3cc(OC)ccc3OC)c(Cl)ccc2c1N
16,14.4 nM,CCNC(=O)c1nnc2c(-c3cnc(OC)nc3OC)cccc2c1N
17,15.2 nM,COc1ccc(C)cc1-c1cccc2c(N)c(C(=O)NC3CC3)nnc12
18,15.4 nM,CCCNC(=O)c1nnc2c(-c3ccc(OC)cc3)cccc2c1N
19,16.1 nM,CCCNC(=O)c1nnc2c(-c3cc(Cl)cc(Cl)c3)c(F)ccc2c1N
20,16.8 nM,CCCNC(=O)c1nnc2c(-c3ccc(C)c(C)c3)cccc2c1N
21,17.6 nM,CCCNC(=O)c1nnc2c(-c3ccc(OC)c(C)c3)cccc2c1N
22,18.4 nM,CCCNC(=O)c1nnc2c(-c3cc(C(=O)N4CCC4)ccc3OC)cccc2c1N
23,18.6 nM,CCCNC(=O)c1nnc2c(-c3ccsc3)cccc2c1N
24,18.6 nM,Nc1c(C(=O)NCC2CC2)nnc2c(-c3ccccc3)cccc12
25,19.4 nM,CCCNC(=O)c1nnc2c(-c3ccccn3)cccc2c1N
26,19.5 nM,CCCNC(=O)c1nnc2c(-c3cnc(OC)nc3)cccc2c1N

row,Ki,Structure (SMILES)
1,20 nM,CCCNC(=O)c1nnc2c(-c3ccc(F)c(F)c3)cccc2c1N
2,20.2 nM,CCCNC(=O)c1nnc2c(-c3ccc(OC)c(F)c3)cccc2c1N
3,20.4 nM,CCCNC(=O)c1nnc2c(-c3cnccn3)cccc2c1N
4,22 nM,CCCNC(=O)c1nnc2c(-c3cc(Cl)cc(Cl)c3)cccc2c1N
5,22.1 nM,CCCNC(=O)c1nnc2c(-c3cnc(OC)c(F)c3)cccc2c1N
6,25.4 nM,CCCNC(=O)c1nnc2c(-c3cnc(OC)c(Cl)c3)cccc2c1N
7,26.6 nM,CCCNC(=O)c1nnc2c(-c3ccc(N(C)C)cc3)cccc2c1N
8,29 nM,CCCNC(=O)c1nnc2c(-c3ccc(C)cc3)cccc2c1N
9,35.8 nM,CNC(=O)c1nnc2c(-c3cc(C)ccc3OC)cccc2c1N
10,35.8 nM,CCCNC(=O)c1nnc2c(-c3cc(C)c(OC)c(C)c3)cccc2c1N
11,37.2 nM,CCCNC(=O)c1nnc2c(-c3ccc(Cl)cc3)cccc2c1N
12,43.3 nM,CCCNC(=O)c1nnc2c(-c3ccc4ccccc4c3)cccc2c1N
13,45.8 nM,CCCNC(=O)c1nnc2c(-c3cc(F)ccc3F)c(F)ccc2c1N
14,47.8 nM,CCCNC(=O)c1nnc2c(-c3cccc(OC(F)(F)F)c3)cccc2c1N
15,53.8 nM,CCCNC(=O)c1nnc2c(-c3cccc(C(=O)O)c3)cccc2c1N
16,56.5 nM,CCCNC(=O)c1nnc2c(-c3cc(OC)c(OC)c(OC)c3)cccc2c1N
17,91.4 nM,CCCNC(=O)c1nnc2c(-c3ccccc3)c(OC)ccc2c1N
18,356 nM,CCCNC(=O)c1nnc2c(-c3cc(C(F)(F)F)cc(C(F)(F)F)c3)cccc2c1N
19,514 nM,CNC(=O)c1nnc2c(-c3cnc(OC)nc3OC)cccc2c1N
20,624 nM,CCCNC(=O)c1nnc2c(-c3c(OC)cccc3OC)cccc2c1N
21,9 nM,CCNC(=O)c1nnc2c(-c3cnc(OC)c(F)c3)cccc2c1N
22,8.22 nM,COc1ccc(F)cc1-c1cccc2c(N)c(C(=O)NC3CC3)nnc12
23,0.785 nM,COc1ccncc1-c1cccc2c(N)c(C(=O)NC3CC3)nnc12
24,0.501 nM,COc1ncccc1-c1cccc2c(N)c(C(=O)NC3CC3)nnc12

row,Structure (SMILES),Ki
1,CCCNC(=O)c1nnc2c(-c3ccc(OC)nc3OC)cccc2c1N,0.56 nM
2,CCCNC(=O)c1nnc2c(-c3cc(C)ccc3OC)c(Cl)ccc2c1N,2.89 nM
3,CCCNC(=O)c1nnc2c(-c3cc(OC)cc(OC)c3)cccc2c1N,5 nM
4,CCCNC(=O)c1nnc2c(-c3ccc4[nH]ccc4c3)cccc2c1N,35 nM
